According to publication PMC9944328 (Nature Communications, 2023):
Like-named read-outs stand apart in the source and are kept apart here.

Assays:
SSTR2 mutants [1] = biological target: SSTR2 mutants (Homo sapiens, UniProt P30874, Y312A)
Protocol: (§1) Wild-type or mutant SSTR2, β-arrestin 1-Nluc and FYVE-mVenus were co-transfected in HEK293 cells at a ratio of 1:0.5:4 on six-well plates. The next day, the transfected cells were plated on white 96-well and incubated overnight, and then cells were incubated with 90 µL HBSS containing 20 mM HEPES and coelenterazine h (5 µM) at room temperature for 40 min. After incubation, ligand was added and the signal was measured using the Synergy H1 microplate reader (BioTek) to determine a BRET ratio.

SSTR2 mutants [2] = biological target: SSTR2 mutants (Homo sapiens, UniProt P30874, R140A)
Protocol: as §1

SSTR2 = SSTR2 internalization by ELISA, HEK293, 30 min 37 °C (wild-type); type: cell-based, human; conditions: for Internalization of wild-type SSTR2: same concentration for both drugs, also confocal and Bystander BRET
Protocol: HEK293 cells were seeded into 96-well microplates at a density of 4 × 10^4 cells/well and cultured for 24 h at 37 °C with 5% CO2 and were transfected using the same procedure as the cAMP accumulation assay. The plates were washed with washing buffer (PBS) the day after transfection, and were fixed with 4% formalin at room temperature for 30 min. Cells were washed with washing buffer and blocked with PBS supplemented with 5% BSA for 1 h at room temperature. After that, cells were incubated with anti-Flag antibody (1:1000 diluted with PBS containing 5% BSA, Proteintech: 66008-4-Ig) for 1 h at room temperature. After 1 h incubation, cells were washed with washing buffer and incubating with HRP-conjugated secondary antibody for 2 h at room temperature. After incubating and washing, 50 μl of chromogenic solution was added to each well, and reacted at room temperature for 10 min, and then 0.5 M HCl were added to stop the reaction.
All data presented are means at least three independent experiments.

SSTR3 = biological target: T1, SSTR3 (Homo sapiens, UniProt P32745); test: SSTRs Gi-mediated cAMP inhibition, GloSensor, HEK293 (SSTR3 wild-type); type: cell-based; parameters: Bottom / Top / Span / Top (best-fit): unit not given here; conditions: for Emax: HEK293; for LogEC50 (best-fit) / Top (best-fit): cAMP inhibition
T1 construct: The human full-length SSTRs and mutants were cloned into the pcDNA3.1+ vector; expressed in transfected cells; host or cells: HEK293 (ATCC, CRL-1573)
Protocol: The levels of the intracellular 3′, 5′-cyclic AMP (cAMP) were measured by the GloSensor cAMP assay (Promega) as described in the previous studies[28],[41] which has been widely used. The human full-length SSTRs and mutants were cloned into the pcDNA3.1+ vector with a HA signal sequence followed by a Flag tag at the N-terminus. […] Cells were then co-transfected with SSTR wild-type or mutants and GloSensor plasmids. After 24 h of transfection, the cells were dissociated with TrypLE™ Express Enzyme (1X) (Thermo Fisher Scientific) and collected by centrifugation at 500 × g for 5 min. Then the collected cells were suspended in Hank’s balanced salt solution [HBSS (Thermo Fisher Scientific)] supplemented with […] potassium salt solution (YEASEN), and then the suspension cells were seeded into 96-well plates with 90 μl/well. After incubating at room temperature for 40 min, 5 μM forskolin and ligands diluted in HBSS were added to each well and the plates were incubated at room temperature for 15 min. […] signals were measured using the Synergy H1 microplate reader (BioTek) and the data presented are means of at least three independent experiments.

[3] = Suppl. Tables 4/5, SSTR3-WT, n=5
[4] = best-fit, SSTR3 WT-1 (F296D set)
[5] = best-fit, SSTR3 WT-1 (H192T set)
[6] = best-fit, SSTR3 WT-1 (M193I set)
[7] = best-fit, SSTR3 WT-1 (N101V set)
[8] = best-fit, SSTR3 WT-2 (F296D set)
[9] = best-fit, SSTR3 WT-2 (H192T set)
[10] = best-fit, SSTR3 WT-2 (M193I set)
[11] = best-fit, SSTR3 WT-2 (N101V set)
[12] = best-fit, SSTR3 WT-3 (F296D set)
[13] = best-fit, SSTR3 WT-3 (M193I set)
[14] = best-fit, SSTR3 WT-3 (N101V set)

T1 sequence (P32745 whole entry): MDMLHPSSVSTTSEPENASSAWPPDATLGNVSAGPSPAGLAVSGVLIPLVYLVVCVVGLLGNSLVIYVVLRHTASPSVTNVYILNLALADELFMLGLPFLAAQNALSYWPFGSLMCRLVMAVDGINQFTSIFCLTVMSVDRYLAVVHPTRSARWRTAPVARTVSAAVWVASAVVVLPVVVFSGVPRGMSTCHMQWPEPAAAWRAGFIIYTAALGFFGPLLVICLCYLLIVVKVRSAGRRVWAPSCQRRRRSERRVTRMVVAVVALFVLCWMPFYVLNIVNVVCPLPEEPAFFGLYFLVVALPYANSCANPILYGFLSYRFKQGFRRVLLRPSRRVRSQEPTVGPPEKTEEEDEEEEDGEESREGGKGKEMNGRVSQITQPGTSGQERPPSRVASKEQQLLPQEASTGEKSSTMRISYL
Sequence of SSTR2 mutants (Homo sapiens, UniProt P30874, R140A) (P30874 whole entry R140A): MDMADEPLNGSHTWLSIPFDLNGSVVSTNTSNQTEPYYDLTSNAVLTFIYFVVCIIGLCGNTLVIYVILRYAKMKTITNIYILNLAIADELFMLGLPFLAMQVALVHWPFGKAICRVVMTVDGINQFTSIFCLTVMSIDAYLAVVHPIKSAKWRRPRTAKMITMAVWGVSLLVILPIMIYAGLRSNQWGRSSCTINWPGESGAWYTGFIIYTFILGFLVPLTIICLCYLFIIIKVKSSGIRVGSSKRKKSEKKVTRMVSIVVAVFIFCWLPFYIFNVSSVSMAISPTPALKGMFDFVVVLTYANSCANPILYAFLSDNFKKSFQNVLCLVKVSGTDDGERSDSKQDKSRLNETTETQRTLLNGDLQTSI
Sequence of SSTR2 mutants (Homo sapiens, UniProt P30874, Y312A) (P30874 whole entry Y312A): as the sequence (P30874 whole entry R140A) above, with A140R, Y312A counted along it

## C[C@@H](O)[C@@H]1NC(=O)[C@H](CCCCN)NC(=O)[C@@H](Cc2c[nH]c3ccccc23)NC(=O)[C@H](Cc2ccccc2)NC(=O)[C@@H](NC(=O)[C@H](N)Cc2ccccc2)CSSC[C@@H](C(=O)N[C@H](CO)[C@@H](C)O)NC1=O [octreotide]
SSTR2 mutants [1]
  Emax: 45.6 ± 1.21%
SSTR2 mutants [2]
  Emax: 48.4 ± 0.93%
SSTR2
  Internalization of wild-type SSTR2: obviously internalized
SSTR3; [3]
  Emax: 99.8 ± 8.21%
SSTR3; SSTR3-WT, run 1
  LogEC50 (best-fit): -7.262
  Top (best-fit): 103
SSTR3; SSTR3-WT, run 2
  LogEC50 (best-fit): -7.521
  Top (best-fit): 99.85
SSTR3; SSTR3-WT, run 3
  LogEC50 (best-fit): -7.466
  Top (best-fit): 98.24
SSTR3; SSTR3-WT, run 4
  LogEC50 (best-fit): -8.231
  Top (best-fit): 100.3

## N#Cc1cccc(-c2ccc3ncc(-c4cc(F)cc(F)c4)c(N4CCC(N)CC4)c3c2)c1O [paltusotine]
SSTR2 mutants [1]
  Emax: 41.3 ± 3%
SSTR2 mutants [2]
  Emax: 50.9 ± 2.01%
SSTR2; SSTR2 WT, compared with octreotide, Fig. 1d–f
  Receptor internalization: less receptor internalization
SSTR2
  Internalization of wild-type SSTR2: reduced
SSTR3
  EC50: 2.6 nM
SSTR3; [3]
  Emax: 36.7 ± 11.7%
SSTR3; Suppl. Tables 4/5, SSTR3-WT
  Fold of WT: 1
SSTR3; Suppl. Tables 4/5, SSTR3-WT, n=5, read-out: EC50
  EC50: 63.8 ± 1.33 nM
SSTR3; [4]
  Bottom: 7.289
  LogEC50: -5.765
  Span: 89.66
  Top: 96.95
SSTR3; [5]
  Bottom: -24.33
  LogEC50: -7.352
  Span: 140.2
  Top: 115.9
SSTR3; best-fit, SSTR3 WT-1 (H192T set), read-out: EC50
  EC50: 44.5 nM
SSTR3; [6]
  Bottom: 2.721
  LogEC50: -7.195
  Span: 103.1
  Top: 105.9
SSTR3; best-fit, SSTR3 WT-1 (M193I set), read-out: EC50
  EC50: 63.8 nM
SSTR3; [7]
  Bottom: 2.721
  LogEC50: -7.195
  Span: 103.1
  Top: 105.9
SSTR3; best-fit, SSTR3 WT-1 (N101V set), read-out: EC50
  EC50: 63.8 nM
SSTR3; [8]
  Bottom: 2.721
  LogEC50: -7.195
  Span: 103.1
  Top: 105.9
SSTR3; best-fit, SSTR3 WT-2 (F296D set), read-out: EC50
  EC50: 63.8 nM
SSTR3; [9]
  Bottom: -19.9
  LogEC50: -7.557
  Span: 137.3
  Top: 117.4
SSTR3; best-fit, SSTR3 WT-2 (H192T set), read-out: EC50
  EC50: 27.7 nM
SSTR3; [10]
  Bottom: -0.9229
  LogEC50: -7.198
  Span: 106.7
  Top: 105.8
SSTR3; best-fit, SSTR3 WT-2 (M193I set), read-out: EC50
  EC50: 63.4 nM
SSTR3; [11]
  Bottom: -0.442
  LogEC50: -8.585
  Span: 97.55
  Top: 97.11
SSTR3; [12]
  Bottom: -0.9229
  LogEC50: -7.198
  Span: 106.7
  Top: 105.8
SSTR3; best-fit, SSTR3 WT-3 (F296D set), read-out: EC50
  EC50: 63.4 nM
SSTR3; [13]
  Bottom: -0.442
  LogEC50: -8.585
  Span: 97.55
  Top: 97.11
SSTR3; [14]
  Bottom: -0.9229
  LogEC50: -7.198
  Span: 106.7
  Top: 105.8
SSTR3; best-fit, SSTR3 WT-3 (N101V set), read-out: EC50
  EC50: 63.4 nM
